The text below walks through data of ChEMBL document CHEMBL1121385, “Phenylalkylamines with potential psychotherapeutic utility. 2. Nuclear substituted 2-amino-1-phenylbutanes” (1980).

The test system of test [1] is Felis catus. Kind of test: Numerical score on cat behavior was measured at a dose of 10 mg/kg, administered subcutaneously. The class given is functional. The settings on record: route subcutaneous.
The species entered for test [2] is Rattus norvegicus. Kind of test: Evaluated for intertrial interval activity in rat; NE means no statistically significant activity. The class given is functional, organism-based.
Test [3] is filed under the species Rattus norvegicus. In words: Potency to produce a significant increase in avoidance responding in rat relative to BL-3912A. The class given is functional.
Test [4] deals with Rattus norvegicus. Kind of test: Minimal dose (ip) required to produce a significant increase in avoidance responding in rat. The class given is functional. The following applies: read-out: MED.
Test [5] concerns Felis catus. In words: Numerical score on cat behavior was measured at a dose of 10 mg/kg administered subcutaneously. The class given is functional. The settings on record: route subcutaneous.
The species entered for test [6] is Rattus norvegicus. In words: Evaluated for intertrial interval activity in rat; statistically significant increase. The class given is functional, organism-based.
The species entered for test [7] is Rattus norvegicus. Kind of test: Evaluated for intertrial interval activity in rat; NE means no statistically significant effect. The class given is functional, organism-based.

Structures are written as SMILES. A value given as a limit tells only on which side of the number the result lay.

Consider `CCCc1cc(OC)c(CC(N)CC)cc1OC.Cl` (racemic), for which the Cat score in test [1] is recorded as 2.5.
For `CCCCc1cc(OC)c(C[C@H](N)CC)cc1OC.Cl`, the ITI activity result in test [2] is “No effect”. Moreover, the Cat score in test [1] was found to be 0. In test [3], this compound displayed a Relative potency below 0.25. For the same compound, the minimal effective dose in test [4] was above 20 mg/kg.
In turn, `CCc1cc(OC)c(C[C@H](N)CC)cc1OC.Cl` had a Cat score in test [5] of 3.3. For the same compound, in test [3], the Relative potency amounted to 2.5. The minimal effective dose in test [4] was 2 mg/kg. For the same compound, in test [6], the ITI activity entry is “Statistically significant increase”.
For the compound `CC[C@@H](N)Cc1cc(OC)c(O)cc1OC.Cl`, in test [1], the Cat score worked out at 0.5.
On to `CCCOc1cc(OC)c(CC(N)CC)cc1OC.Cl` (racemic), for which, in test [1], the Cat score is recorded as 0.
On the same count and under the same terms, the value for `CCC(N)Cc1cc(OC)c(Br)cc1OC.Cl` (racemic) was 2.
`CC[C@@H](N)Cc1cc(OC)c(C(C)C)cc1OC.Cl` came in with a Cat score in test [1] of 0. For the same compound, in test [7], the ITI activity entry was “No effect”. Moreover, the Relative potency in test [3] is below 0.25. Further, the minimal effective dose in test [4] is above 20 mg/kg.
In turn, `CCC(N)Cc1cc(OC)ccc1OC.Cl` (racemic) showed a Cat score in test [1] of 2.
The same measure, in the same setting: the value for `CCC(N)Cc1cc(OC)c(C(C)C)cc1OC.Cl` (racemic) was 0.5.
Same read-out and setting: with `CC[C@@H](N)Cc1cc(OC)c(OC(C)C)cc1OC.Cl` the figure was 0; with `CC[C@H](N)Cc1cc(OC)c(SC)cc1OC.Cl`, 1; with `CCCOc1cc(OC)c(C[C@H](N)CC)cc1OC.Cl`, 1.5.
`CC[C@@H](N)Cc1cc(OC)c(Br)cc1OC.Cl` registered a Cat score in test [5] of 3.5. In test [3], this compound had a Relative potency of 2.5. Besides, the minimal effective dose in test [4] worked out at 2 mg/kg. The ITI activity entry in test [6] is recorded as “Statistically significant increase”.
`CCc1cc(OC)c(C[C@@H](N)CC)cc1OC.Cl` displayed a Cat score in test [1] of 1.
The compound `CCC(N)Cc1cc(OC)ccc1OC.Cl` (single isomer, unassigned) gave a Cat score in test [1] (10 mg/kg) of 2.
`CC[C@@H](N)Cc1cc(OC)c(C)cc1OC.Cl` [DIMOXAMINE HYDROCHLORIDE]: the Cat score in test [5] was 1.3. In test [7], the ITI activity result was “No effect”. In test [3], this compound yielded a Relative potency of 1. In addition, the minimal effective dose in test [4] amounted to 5 mg/kg.
`CCc1cc(OC)c(CC(N)CC)cc1OC.Cl` (racemic) yielded a Cat score in test [5] of 4.
Still for that read-out and setting: the value for `CC[C@H](N)Cc1cc(OC)c(C)cc1OC.Cl` was 0.5.
`CC[C@@H](N)Cc1cc(OC)c([N+](=O)[O-])cc1OC.Cl`: in test [1], the Cat score came out at 3.5.
Same read-out and setting: with `CC[C@@H](N)Cc1cc(OC)c(I)cc1OC.Cl` the figure was 2.5.
Consider `CC[C@@H](N)Cc1cc(OC)c(Cl)cc1OC.Cl`, for which the Cat score in test [1] came to 6.5. Besides, in test [7], the ITI activity result is “No effect”. In test [3], this compound came in with a Relative potency of 0.25. Further, in test [4], the minimal effective dose is 20 mg/kg.
Consider `CC[C@@H](N)Cc1cc(OC)c(N)cc1OC.Cl`, for which, in test [1], the Cat score is 1.5.
Compound `CC[C@@H](N)Cc1cc(OC)ccc1OC.Cl` gave a Cat score in test [1] (10 mg/kg) of 0.5.
As to `CCCc1cc(OC)c(C[C@H](N)CC)cc1OC.Cl`, the Cat score in test [1] is reported as 0.5. Also, the Relative potency in test [3] worked out at 5. Besides, the minimal effective dose in test [4] worked out at 1 mg/kg. Moreover, the ITI activity entry in test [6] was “Statistically significant increase”.
Compound `CC[C@H](N)Cc1cc(OC)c(Br)cc1OC.Cl` came in with a Cat score in test [1] of 2.
On the same count and under the same terms, the value for `CCC(N)Cc1cc(OC)c(SC)cc1OC.Cl` (racemic) was 1; that for `CCOc1cc(OC)c(C[C@H](N)CC)cc1OC.Cl` was 1.5.
